# Measurements published in US9394253B2, “Kinase protein binding inhibitors” (Roswell Park Cancer Institute, priority 2011, dated 2016).
# How the values were obtained:
# [1] = tested on: MCF-7-VEGFR3 cells; experiment: MTS cell viability assay, MCF-7-VEGFR3 cells; assay type: cell-based; settings: MTS assay at 72 hours
# Procedure: (§1) Equal numbers of cells were plated and allowed to attach for 24 hours. Cells were treated with the drug or control as described. Cellular viability was measured using trypan blue exclusion and cell counting with a hemacytometer. Viability was further measured with an MTS (3-(4,5-dimethylthiazol-2-yl)-5-(3-carboxymethoxyphenyl)-2-(4-sulfophenyl)-2H-tetrazolium) assay. MTS in the presence of phenazine methosulfate (PMS), produces a formazan product that has an absorbance maximum at 490-500 nm in phosphate-buffered saline. In brief, cells were plated at 5×10^3 cells per well on 96-well culture plates and allowed to attach. Following treatment with siRNA or peptides, […] was added to each well and the absorbance at 490 nm was measured using a kinetic microplate reader (Vmax, Molecular Devices, Inc., Sunnyvale, Calif.). The MTS assay was performed at 72 hours after exposure of the cells to determine the IC50 for each of the selected compounds.
# (§2) In FIGS. 15 and 16, MiaPaCa-2-luc cells (with an IC50 for C9 of 8 μM and for C10 of 20 μM) and MCF-7-VEGFR3 cells (with an IC50 for C9 of 4 μM and for C10 of 8 μM) were treated with 1, 10 or 25 μM C9 or C10 for 24 hours (the MCF-7-VEGFR3 cells serving as a positive control in this study). Western blots were performed as described above to determine the levels of total Akt, phosphorylated Akt (pAkt), total Erk, and phosphorylated Erk (pErk). […]
# [2] = tested on: MiaPaCa-2-luc cells; experiment: MTS cell viability assay, MiaPaCa-2-luc cells; assay type: cell-based; settings: Homo sapiens, MTS assay at 72 hours
# Procedure: as §1, §2
# [3] = tested on: pancreatic cancer cell line; experiment: Clonogenicity (colony formation); assay type: cell-based, Human; settings: compared with chloropyramine (C4)
# Procedure: The 500-1000 cells were plated on 6 well plates and incubated at 37° C. for 1-2 weeks. Then cells were fixed in 25% methanol and stained with Crystal Violet and colonies were visualized and counted in two independent experiments.
# In FIG. 11, results of such a clonogenicity study are shown for compounds C9 and C10 using a pancreatic cancer cell line. In this particular study, since compound C1 is not active against this particular cancer cell line (see FIG. 3), it was used as a negative control. Chloropyramine (“C4”), which has been previously shown to have some activity against this cancer cell line, was used as a positive control.
# [4] = tested on: MiaPaCa-2-luc cells; experiment: Tumor growth in xenograft nude mice; assay type: in vivo
# Procedure: Female nude or SCID mice were purchased six weeks old and were maintained in the animal facility, and all experiments were performed in compliance with NIH animal use guidelines using IACUC protocol approved by the Roswell Park Animal Care Committee. The 1×10^6 MiaPaCa2 cells were injected into mice subcutaneously. Next day after cell injection or week later, when tumor size reached 100 mm^3, drug was introduced by IP or gavage orally daily, 5 days per week for several weeks. Tumor diameters were measured with calipers and tumor volume in mm^3 was calculated using this formula: tumor volume=(width)^2×Length/2. At the end of the experiment, tumor weight and volume were determined. Tumor samples were collected for Western blotting and for immunohistochemical analysis.
# Mice received a daily dose of the indicated amount of compounds 9A, 9B or C10 either by intraperitoneal injection (IP) or by oral gavage (PO). Treatment was initiated after tumors reached a volume of approximately 100 mm^3. […] The percent reduction in tumor volume compared to the control group (“PBS-IP”) is indicated in FIG. 6B for each treatment group.
# [5] = biological target: T1, FAK and VEGFR3 (Flt-4) proteins (Homo sapiens, UniProt Q05397); experiment: Immunoprecipitation with FAK antibody after treatment of MiaPaCa-2 cells (FAK-VEGFR3 binding); assay type: cell-based; settings: 24 h of treatment
# T1 construct: Immunoprecipitation with FAK antibody after 24 h of treatment of MiaPaCa-2 cells; endogenous in cells; host or cells: MiaPaCa-2
# T1 sequence (Q05397 2-1052 limits assumed): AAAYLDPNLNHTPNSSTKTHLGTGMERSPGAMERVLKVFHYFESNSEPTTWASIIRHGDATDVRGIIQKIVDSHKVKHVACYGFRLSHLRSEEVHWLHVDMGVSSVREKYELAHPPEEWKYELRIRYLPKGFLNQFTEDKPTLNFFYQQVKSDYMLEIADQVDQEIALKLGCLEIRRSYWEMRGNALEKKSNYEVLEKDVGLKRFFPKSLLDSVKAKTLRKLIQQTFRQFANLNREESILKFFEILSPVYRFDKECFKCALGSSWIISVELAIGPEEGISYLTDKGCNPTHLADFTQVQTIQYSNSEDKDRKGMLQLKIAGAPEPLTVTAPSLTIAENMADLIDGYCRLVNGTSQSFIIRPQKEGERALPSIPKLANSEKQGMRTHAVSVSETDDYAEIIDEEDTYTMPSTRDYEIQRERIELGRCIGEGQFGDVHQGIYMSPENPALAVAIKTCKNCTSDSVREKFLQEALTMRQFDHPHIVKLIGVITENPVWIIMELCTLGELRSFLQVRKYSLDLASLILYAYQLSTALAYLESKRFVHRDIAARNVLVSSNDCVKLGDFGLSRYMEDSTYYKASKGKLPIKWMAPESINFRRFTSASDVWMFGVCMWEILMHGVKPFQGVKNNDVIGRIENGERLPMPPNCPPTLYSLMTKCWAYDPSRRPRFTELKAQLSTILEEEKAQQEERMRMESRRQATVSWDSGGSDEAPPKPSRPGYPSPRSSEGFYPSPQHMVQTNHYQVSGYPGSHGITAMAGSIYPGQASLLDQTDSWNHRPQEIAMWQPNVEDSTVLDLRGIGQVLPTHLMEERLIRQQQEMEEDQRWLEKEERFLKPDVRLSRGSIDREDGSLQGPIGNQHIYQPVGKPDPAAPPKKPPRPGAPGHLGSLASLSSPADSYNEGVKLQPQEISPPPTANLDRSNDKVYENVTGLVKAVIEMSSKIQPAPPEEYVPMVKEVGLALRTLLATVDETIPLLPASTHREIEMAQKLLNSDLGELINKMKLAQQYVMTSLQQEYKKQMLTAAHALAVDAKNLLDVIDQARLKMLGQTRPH
# Procedure: For immunoprecipitation, cells are lysed with NP40 lysis buffer, and 1000 μg of total protein is precleared with protein A/G-agarose beads (CalBiochem) at 4° C. for 1 hour and then incubated with 5 μg of antibody overnight followed by a 2 hour incubation with protein A/G-agarose beads at 4° C. Precipitates are washed thrice with cold PBS and the beads are resuspended in SDS-PAGE sample loading buffer, boiled for 5 minutes, and resolved by SDS-PAGE. Proteins are transferred to polyvinylidene difluoride membrane, probed with the appropriate antibody, and detected with chemiluminescence using Amersham ECL Western blotting detection reagents (GE Healthcare Life Sciences, Piscataway, N.J.).
# The study utilized the “Octet Red” technology (ForteBio, Menlo Park, Calif.), which provides real-time monitoring for protein-small molecule interactions and binding events using BioLayer Interferometry (BLI) technology. Any change in the number of molecules bound to the biosensor tip changes the optical layer thickness. […] Since C1 is not active against this pancreatic cancer cell line, it was included as a negative control, and chloropyramine (“C4”), which has been shown previously to be active against this cell line, was used as a positive control.
# [6] = tested on: phosphorylated Akt and phosphorylated Erk; experiment: Western blot of downstream effectors of FAK (Akt, Erk); assay type: cell-based; settings: MiaPaCa-2-luc and MCF-7-VEGFR3 cells, 1, 10 or 25 μM for 24 hours
# Procedure: Western blots were performed essentially as previously described. See: Beierle E, Ma X, Trujillo A, Kurenova E, Cance W, Golubovskaya V: Inhibition of focal adhesion kinase and src increases detachment and apoptosis in human neuroblastoma cell lines. Mol Carcinog 2010, 49:224-234; Kurenova E, Xu L, Yang X, Baldwin A J, Craven R, Hanks S, Liu Z, Cance W: Focal adhesion kinase suppresses apoptosis by binding to the death domain of receptor-interacting protein. Mol Cell Biol 2004, 24:4361-4371. Briefly, cells were treated with the agent under study, then lysed on ice for 30 min in a buffer containing 50 mM Tris-HCL, (pH 7.5), 150 mM NaCl, 1% Triton-X, 0.5% NaDOC, 0.1% SDS, 5 mM EDTA, 50 mM NaF, 1 mM NaVO3, 10% glycerol, and protease inhibitors: 10 μg/mL leupeptin, 10 μg/mL PMSF and 1 μg/ML aprotinin. The lysates were cleared by centrifugation at 10 000 rpm for 30 min at 4° C. Protein concentrations were determined using a Bio-Rad kit (BioRad, Hercules, Calif.) and proteins were separated by electrophoresis on SDS-PAGE gels. Antibodies were used according to manufacturer's recommended conditions. Molecular weight markers were used to confirm the expected size of the target proteins. Immunoblots were developed with chemiluminescence Amersham ECL Western blotting detection reagents (GE Healthcare Biosciences). […]
# [7] = tested on: pancreatic cancer cell line; experiment: Viability of pancreatic cancer cells exposed to compounds (FIG. 3); assay type: cell-based, Human; settings: 50 μM
# Procedure: as §1
# FIGS. 1-3 show the results of exposure of the indicated cancer cell lines to 50 μM of the indicated compounds of the invention.
# [8] = biological target: T2, FAK FAT domain (Homo sapiens, UniProt Q05397); experiment: Label-free OctetRED binding assay
# T2 sequence (Q05397 914-1045 limits assumed): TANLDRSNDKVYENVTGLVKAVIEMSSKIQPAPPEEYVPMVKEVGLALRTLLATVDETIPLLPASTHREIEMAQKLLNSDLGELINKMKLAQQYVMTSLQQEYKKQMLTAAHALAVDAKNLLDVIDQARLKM
# Text: We used a label-free OctetRED method for determining kinetic constants for the binding of small molecule inhibitors to the FAK FAT domain.
# A label-free OctetRED method was used for determining kinetic constants for the binding of C9 or C10 to the FAK-FAT domain. Label-free analysis of the association and dissociation of a small molecule with the target protein of interest results in the determination of kinetic constants including the association rate constant (ka), dissociation rate constant (kd), and equilibrium dissociation constant (KD).
SMILES,IC50 [1],IC50 [2],inhibition of colony formation [3],"tumor volume compared to vehicle (PBS)-treated tumors ([4]; IP 20 mg/kg daily, P<0.05)",effectiveness by route of administration ([4]; oral vs intraperitoneal),concentration at which binding of FAK and VEGFR3 (Flt-4) proteins was disrupted [5],phosphorylated Akt level [6],phosphorylated Erk level [6],activity against pancreatic cancer cell line [7],binding to the FAT domain of FAK [8]
CN(C)CCN(Cc1ccc(Cl)cc1)c1ccc2ccccc2n1 [Compound C10],8 µM,20 µM,active at much lower doses than C4,Statistically significant differences,very effective when administered orally,10 µM,strong down-regulation,strong down-regulation,–,–
CN(C)CCNc1ccccn1 [Compound C1],–,–,–,–,–,–,–,–,not active,does not appear to bind
